Laboratory results from article PMC11719606, “Exploring the Inhibition of Toxoplasma gondii α-Carbonic Anhydrase by Sulfonamides: Insights into Potential Drug Targeting” (International Journal of Molecular Sciences, 2024).

Target: T1, Tg_CA (Toxoplasma gondii, UniProt S8F479)
T1 construct: gene TGME49_259950; alpha-CA domain, residues 487-830 of an 861-residue protein; E. coli BL21(DE3) codon-plus; about 47 kDa
T1 sequence (S8F479 487-830): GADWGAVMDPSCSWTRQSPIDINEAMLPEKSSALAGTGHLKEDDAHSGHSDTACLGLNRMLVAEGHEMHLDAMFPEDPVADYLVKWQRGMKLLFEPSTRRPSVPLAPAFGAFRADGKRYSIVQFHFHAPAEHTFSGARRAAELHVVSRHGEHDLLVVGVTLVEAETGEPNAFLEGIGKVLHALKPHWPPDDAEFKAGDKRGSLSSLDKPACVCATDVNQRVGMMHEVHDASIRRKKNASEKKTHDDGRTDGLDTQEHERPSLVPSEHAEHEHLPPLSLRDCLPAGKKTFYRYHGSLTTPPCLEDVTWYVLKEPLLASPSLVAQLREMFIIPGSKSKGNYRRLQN
Test: stopped-flow CO2 hydration, phenol red, Cheng-Prusoff
Format: biochemical

For NS(=O)(=O)c1ccc(CO)cc1 [compound 16], which Ki is on record?
Its Ki is 91.6 nM.

Which Ki does the source give for O=C1NS(=O)(=O)c2ccccc21 [SAC, Saccharin] here?
The Ki was 8450 nM.

For Nc1ccc(S(=O)(=O)NCc2ccc(S(N)(=O)=O)cc2)cc1 [compound 23], which Ki is on record?
Its Ki is 93.4 nM.

Which Ki does the source give for NCc1ccc(S(N)(=O)=O)cc1 [compound 5] here?
The Ki was 739 nM.

Which Ki does the source give for Nc1ccc(S(=O)(=O)Nc2ccc(S(N)(=O)=O)cc2)cc1 [compound 22] here?
Its Ki is 91.2 nM.

How did the Ki turn out when NS(=O)(=O)c1ccc(C(=O)O)cc1 [compound 18] was run?
Its Ki is 85.3 nM.

Which Ki does the source give for NS(=O)(=O)Cc1noc2ccccc12 [ZNS, Zonisamide] here?
Its Ki is 912 nM.

With Nc1ccc(S(=O)(=O)NCCc2ccc(S(N)(=O)=O)cc2)cc1 [compound 24] as the compound, how does the Ki read?
Its Ki is 204 nM.

For NS(=O)(=O)c1ccc(S(=O)(=O)Nc2cccc3c(Cl)c[nH]c23)cc1 [IND, Indisulam], which Ki is on record?
The Ki was 84 nM.

How did the Ki turn out when Nc1nnc(S(N)(=O)=O)s1 [compound 13] was run?
The Ki was 57.5 nM.

NS(=O)(=O)c1cc(Cl)c(Cl)c(S(N)(=O)=O)c1 [DCP, Dichlorphenamide] was tested. Which Ki did it give?
The Ki was 77.5 nM.

Cc1ccc(-c2cc(C(F)(F)F)nn2-c2ccc(S(N)(=O)=O)cc2)cc1 [CLX, Celecoxib] was tested. Which Ki did it give?
Its Ki is 508 nM.

With Nc1ccc(S(=O)(=O)Nc2nnc(S(N)(=O)=O)s2)cc1 [compound 20] as the compound, how does the Ki read?
The Ki was 17.8 nM.

How did the Ki turn out when NS(=O)(=O)c1cc2c(cc1Cl)NCNS2(=O)=O [HCT, Hydrochlorothiazide] was run?
Its Ki is 839 nM.

How did the Ki turn out when CC1(C)O[C@@H]2[C@@H](CO[C@@]3(COS(N)(=O)=O)OC(C)(C)O[C@@H]23)O1 [TPM, Topiramate] was run?
The Ki was 720 nM.

With NS(=O)(=O)c1ccc(CCNS(=O)(=O)c2ccc([N+](=O)[O-])cc2CO)cc1 [compound 21] as the compound, how does the Ki read?
The Ki was 94.7 nM.

For Nc1nccc(Nc2ccc(S(N)(=O)=O)cc2)n1 [compound 19], which Ki is on record?
The Ki was 72.5 nM.

For Cc1onc(-c2ccccc2)c1-c1ccc(S(N)(=O)=O)cc1 [VLX, Valdecoxib], which Ki is on record?
Its Ki is 426 nM.

CC(=O)N=c1sc(S(N)(=O)=O)nn1C [MZA, Methazolamide] was tested. Which Ki did it give?
The Ki was 24.7 nM.

How did the Ki turn out when NS(=O)(=O)c1cc(Cl)cc(Cl)c1O [compound 10] was run?
The Ki was 578 nM.

For Nc1cc(Cl)c(S(N)(=O)=O)cc1S(N)(=O)=O [compound 12], which Ki is on record?
Its Ki is 73.8 nM.

How did the Ki turn out when CCN[C@H]1CN(CCCOC)S(=O)(=O)c2sc(S(N)(=O)=O)cc21 [BRZ, Brinzolamide] was run?
The Ki was 77.8 nM.

With Cn1nc(S(N)(=O)=O)sc1=N [compound 14] as the compound, how does the Ki read?
The Ki was 61 nM.

How did the Ki turn out when NS(=O)(=O)c1ccc(CCO)cc1 [compound 17] was run?
The Ki was 263 nM.

For Cc1ccc(S(N)(=O)=O)cc1 [compound 4], which Ki is on record?
The Ki was 586 nM.

How did the Ki turn out when NS(=O)(=O)c1nnc(NS(=O)(=O)c2ccccc2)s1 [BZA, Benzolamide] was run?
The Ki was 62.1 nM.

How did the Ki turn out when Nc1cc(C(F)(F)F)c(S(N)(=O)=O)cc1S(N)(=O)=O [compound 11] was run?
Its Ki is 65.1 nM.

With NS(=O)(=O)c1ccc(O)cc1 [compound 15] as the compound, how does the Ki read?
The Ki was 76.4 nM.
